How the values were obtained:
[1] = target: Voltage-dependent L-type calcium channel subunit alpha-1C (Rattus norvegicus, UniProt P22002); type: functional
Adenosine receptor A1 = target: T1, Adenosine receptor A1 (Homo sapiens, UniProt P30542)
T1 sequence (P30542 whole entry): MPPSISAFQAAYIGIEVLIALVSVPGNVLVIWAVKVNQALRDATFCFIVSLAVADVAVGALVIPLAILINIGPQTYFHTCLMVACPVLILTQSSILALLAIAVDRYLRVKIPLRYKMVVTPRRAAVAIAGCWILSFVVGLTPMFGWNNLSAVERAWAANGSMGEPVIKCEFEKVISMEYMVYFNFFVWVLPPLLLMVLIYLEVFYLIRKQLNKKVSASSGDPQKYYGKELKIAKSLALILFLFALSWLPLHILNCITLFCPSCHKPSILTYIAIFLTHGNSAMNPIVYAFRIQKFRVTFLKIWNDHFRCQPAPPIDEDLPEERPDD

Progesterone receptor = target: T2, Progesterone receptor (Homo sapiens, UniProt P06401); type: functional
T2 sequence (P06401 whole entry): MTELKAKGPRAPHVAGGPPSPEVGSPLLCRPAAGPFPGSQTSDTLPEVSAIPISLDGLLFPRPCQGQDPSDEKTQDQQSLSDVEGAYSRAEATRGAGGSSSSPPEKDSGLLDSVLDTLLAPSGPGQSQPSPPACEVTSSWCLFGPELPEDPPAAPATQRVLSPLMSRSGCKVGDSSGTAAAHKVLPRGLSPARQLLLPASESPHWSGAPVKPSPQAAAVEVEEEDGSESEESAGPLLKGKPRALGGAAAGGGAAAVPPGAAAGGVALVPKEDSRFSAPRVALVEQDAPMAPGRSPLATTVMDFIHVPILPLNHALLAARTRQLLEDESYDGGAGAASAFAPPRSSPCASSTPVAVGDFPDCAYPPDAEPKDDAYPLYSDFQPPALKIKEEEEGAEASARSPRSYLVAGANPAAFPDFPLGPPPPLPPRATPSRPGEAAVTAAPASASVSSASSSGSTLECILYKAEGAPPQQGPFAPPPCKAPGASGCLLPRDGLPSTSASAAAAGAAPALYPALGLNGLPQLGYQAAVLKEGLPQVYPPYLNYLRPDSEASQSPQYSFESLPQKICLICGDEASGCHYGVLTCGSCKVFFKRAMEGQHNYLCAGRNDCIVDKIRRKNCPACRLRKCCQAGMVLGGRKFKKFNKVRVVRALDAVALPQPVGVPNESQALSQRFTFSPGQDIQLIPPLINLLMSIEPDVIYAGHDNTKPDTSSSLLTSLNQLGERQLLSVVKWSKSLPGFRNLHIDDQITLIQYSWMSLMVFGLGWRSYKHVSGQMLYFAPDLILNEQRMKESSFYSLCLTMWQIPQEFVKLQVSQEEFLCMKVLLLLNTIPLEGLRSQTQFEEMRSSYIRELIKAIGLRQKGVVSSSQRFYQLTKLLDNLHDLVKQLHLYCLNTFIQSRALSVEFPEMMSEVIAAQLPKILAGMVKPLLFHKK

[2] = target: T3, Type-1 angiotensin II receptor (Homo sapiens, UniProt P30556)
T3 sequence (P30556 whole entry): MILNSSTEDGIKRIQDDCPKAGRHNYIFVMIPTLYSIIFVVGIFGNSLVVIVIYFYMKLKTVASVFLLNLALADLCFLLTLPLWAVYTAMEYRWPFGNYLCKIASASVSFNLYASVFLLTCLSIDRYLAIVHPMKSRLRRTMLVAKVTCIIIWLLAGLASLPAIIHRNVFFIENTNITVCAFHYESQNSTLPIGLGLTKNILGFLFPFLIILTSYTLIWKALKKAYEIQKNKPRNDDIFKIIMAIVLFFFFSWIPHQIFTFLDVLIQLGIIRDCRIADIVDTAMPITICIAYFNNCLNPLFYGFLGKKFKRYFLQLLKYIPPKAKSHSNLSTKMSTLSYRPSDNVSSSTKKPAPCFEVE

Adenosine receptor A3 = target: T4, Adenosine receptor A3 (Homo sapiens, UniProt P0DMS8)
T4 sequence (P0DMS8 whole entry): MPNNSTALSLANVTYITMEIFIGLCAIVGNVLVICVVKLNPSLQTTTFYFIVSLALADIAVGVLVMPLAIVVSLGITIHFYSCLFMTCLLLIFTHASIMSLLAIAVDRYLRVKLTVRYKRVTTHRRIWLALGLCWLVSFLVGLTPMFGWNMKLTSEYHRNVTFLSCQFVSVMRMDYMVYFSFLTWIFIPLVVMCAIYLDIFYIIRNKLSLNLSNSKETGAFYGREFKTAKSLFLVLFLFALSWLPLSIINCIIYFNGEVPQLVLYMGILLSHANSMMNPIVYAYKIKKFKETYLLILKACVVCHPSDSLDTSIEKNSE

Mu-type opioid receptor = Mu-type opioid receptor (Homo sapiens, UniProt P35372); experiment: biochemical; type: functional
Histamine H3 receptor = Histamine H3 receptor (Homo sapiens, UniProt Q9Y5N1)
[3] = target: T5, Alpha-2B adrenergic receptor (Homo sapiens, UniProt P18089)
T5 sequence (P18089 whole entry): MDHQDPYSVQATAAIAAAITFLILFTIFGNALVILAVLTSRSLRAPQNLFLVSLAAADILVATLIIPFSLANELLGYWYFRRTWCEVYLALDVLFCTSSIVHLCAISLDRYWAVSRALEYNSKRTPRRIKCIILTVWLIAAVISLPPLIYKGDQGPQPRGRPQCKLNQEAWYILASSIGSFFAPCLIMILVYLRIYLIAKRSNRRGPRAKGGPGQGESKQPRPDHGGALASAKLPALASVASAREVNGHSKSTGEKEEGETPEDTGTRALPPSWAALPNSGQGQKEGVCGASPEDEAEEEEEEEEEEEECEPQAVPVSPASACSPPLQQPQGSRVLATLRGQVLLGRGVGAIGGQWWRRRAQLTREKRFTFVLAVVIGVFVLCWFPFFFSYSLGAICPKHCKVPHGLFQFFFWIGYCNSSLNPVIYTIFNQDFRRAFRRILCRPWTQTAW
Further: assay procedure not described here.

Sequence of Mu-type opioid receptor (P35372 whole entry): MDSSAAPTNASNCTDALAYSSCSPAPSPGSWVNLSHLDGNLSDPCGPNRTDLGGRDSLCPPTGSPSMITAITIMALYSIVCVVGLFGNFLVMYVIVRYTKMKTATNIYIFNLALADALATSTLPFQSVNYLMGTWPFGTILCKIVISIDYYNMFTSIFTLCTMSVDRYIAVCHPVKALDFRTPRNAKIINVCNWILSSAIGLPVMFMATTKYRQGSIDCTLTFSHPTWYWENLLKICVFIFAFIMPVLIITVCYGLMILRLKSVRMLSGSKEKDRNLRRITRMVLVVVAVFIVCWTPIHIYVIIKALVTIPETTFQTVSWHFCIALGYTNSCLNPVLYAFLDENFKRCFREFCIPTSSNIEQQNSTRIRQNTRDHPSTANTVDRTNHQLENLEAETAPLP
Sequence of Voltage-dependent L-type calcium channel subunit alpha-1C (P22002 whole entry): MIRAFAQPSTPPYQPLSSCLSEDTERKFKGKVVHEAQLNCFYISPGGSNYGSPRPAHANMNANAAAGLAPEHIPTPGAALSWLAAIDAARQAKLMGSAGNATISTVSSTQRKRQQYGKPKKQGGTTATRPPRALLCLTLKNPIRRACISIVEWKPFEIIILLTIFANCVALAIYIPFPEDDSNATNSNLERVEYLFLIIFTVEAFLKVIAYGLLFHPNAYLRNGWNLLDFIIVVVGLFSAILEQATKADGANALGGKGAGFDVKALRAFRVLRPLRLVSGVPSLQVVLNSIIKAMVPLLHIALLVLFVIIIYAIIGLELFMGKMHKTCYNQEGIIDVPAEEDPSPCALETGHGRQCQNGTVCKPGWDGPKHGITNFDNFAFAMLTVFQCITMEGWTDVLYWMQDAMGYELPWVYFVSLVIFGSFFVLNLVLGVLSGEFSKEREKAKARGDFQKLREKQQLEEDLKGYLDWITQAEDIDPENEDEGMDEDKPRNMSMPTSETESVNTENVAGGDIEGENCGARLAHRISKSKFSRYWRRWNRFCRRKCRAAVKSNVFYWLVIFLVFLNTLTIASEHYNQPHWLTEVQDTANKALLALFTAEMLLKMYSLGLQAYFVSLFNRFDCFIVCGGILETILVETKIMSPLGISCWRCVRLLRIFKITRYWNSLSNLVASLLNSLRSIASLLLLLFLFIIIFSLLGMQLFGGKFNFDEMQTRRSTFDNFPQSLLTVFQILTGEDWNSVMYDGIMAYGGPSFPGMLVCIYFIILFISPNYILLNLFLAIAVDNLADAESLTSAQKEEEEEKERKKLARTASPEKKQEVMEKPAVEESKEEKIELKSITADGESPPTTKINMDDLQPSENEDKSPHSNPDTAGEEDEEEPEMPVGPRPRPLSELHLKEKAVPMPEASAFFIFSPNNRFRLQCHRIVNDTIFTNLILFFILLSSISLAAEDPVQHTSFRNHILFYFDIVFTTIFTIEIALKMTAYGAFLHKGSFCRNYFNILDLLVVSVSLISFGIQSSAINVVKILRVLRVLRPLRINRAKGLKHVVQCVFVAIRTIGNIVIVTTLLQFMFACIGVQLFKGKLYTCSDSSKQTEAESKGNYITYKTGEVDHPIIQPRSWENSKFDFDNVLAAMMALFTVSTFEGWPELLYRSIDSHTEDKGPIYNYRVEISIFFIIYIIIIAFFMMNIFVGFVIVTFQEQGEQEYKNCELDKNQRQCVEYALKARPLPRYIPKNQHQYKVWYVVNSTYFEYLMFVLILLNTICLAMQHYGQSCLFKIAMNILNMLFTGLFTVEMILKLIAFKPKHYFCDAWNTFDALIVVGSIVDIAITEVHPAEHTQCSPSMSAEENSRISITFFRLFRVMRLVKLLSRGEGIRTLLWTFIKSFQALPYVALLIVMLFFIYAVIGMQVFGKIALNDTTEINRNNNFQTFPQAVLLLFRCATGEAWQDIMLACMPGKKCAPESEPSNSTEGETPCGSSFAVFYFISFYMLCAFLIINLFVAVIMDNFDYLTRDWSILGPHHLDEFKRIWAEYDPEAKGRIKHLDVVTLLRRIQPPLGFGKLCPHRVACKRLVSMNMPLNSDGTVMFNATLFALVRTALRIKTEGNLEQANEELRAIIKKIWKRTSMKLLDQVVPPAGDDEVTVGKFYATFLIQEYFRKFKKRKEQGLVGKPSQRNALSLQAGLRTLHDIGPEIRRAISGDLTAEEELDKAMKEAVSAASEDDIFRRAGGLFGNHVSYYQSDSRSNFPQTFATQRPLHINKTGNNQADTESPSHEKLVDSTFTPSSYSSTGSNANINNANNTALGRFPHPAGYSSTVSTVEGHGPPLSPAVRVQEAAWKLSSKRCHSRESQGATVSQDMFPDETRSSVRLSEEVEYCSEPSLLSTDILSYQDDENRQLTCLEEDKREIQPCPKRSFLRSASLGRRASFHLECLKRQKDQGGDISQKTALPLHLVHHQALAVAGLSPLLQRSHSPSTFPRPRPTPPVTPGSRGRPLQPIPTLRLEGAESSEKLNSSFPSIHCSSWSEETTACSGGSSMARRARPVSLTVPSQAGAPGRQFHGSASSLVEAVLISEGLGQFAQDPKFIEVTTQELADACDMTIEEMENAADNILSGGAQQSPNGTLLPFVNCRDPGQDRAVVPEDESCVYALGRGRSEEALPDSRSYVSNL
Sequence of Histamine H3 receptor (Q9Y5N1 whole entry): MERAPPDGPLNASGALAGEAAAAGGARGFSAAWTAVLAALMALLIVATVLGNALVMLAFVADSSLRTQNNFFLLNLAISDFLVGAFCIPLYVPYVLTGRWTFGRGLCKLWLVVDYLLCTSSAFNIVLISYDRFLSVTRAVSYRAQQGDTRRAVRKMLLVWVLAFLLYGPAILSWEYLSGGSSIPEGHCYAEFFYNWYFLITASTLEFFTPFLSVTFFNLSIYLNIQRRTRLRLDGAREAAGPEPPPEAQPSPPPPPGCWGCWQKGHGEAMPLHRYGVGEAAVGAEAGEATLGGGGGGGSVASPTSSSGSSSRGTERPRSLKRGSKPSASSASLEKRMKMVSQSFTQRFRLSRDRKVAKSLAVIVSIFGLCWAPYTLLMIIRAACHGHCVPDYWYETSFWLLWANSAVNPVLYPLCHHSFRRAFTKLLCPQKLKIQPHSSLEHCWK

AC50 [1] [µM]	AC50 (Adenosine receptor A1) [µM]	AC50 (Progesterone receptor) [µM]	AC50 [2] [µM]	AC50 (Adenosine receptor A3) [µM]	AC50 (Mu-type opioid receptor) [µM]	AC50 (Histamine H3 receptor) [µM]	AC50 [3] [µM]	SMILES
> 30	> 30	> 30	> 30	> 30	> 30	> 30	> 30	CCN(CC)C(=O)Nc1ccc(OCC(O)CNC(C)(C)C)c(C(C)=O)c1 (stereo unspecified) [CELIPROLOL]
> 30	> 30	> 30	> 30	> 30	> 30	> 30	> 30	O=C(O)c1ccccc1Nc1cc(Cl)ccc1C(=O)O [LOBENZARIT]
> 30	> 30	> 30	> 30	> 30	> 30	> 30	> 30	C#CCOc1ccc(N)cc1C(=O)NCCCC [PARSALMIDE]
> 30	> 30	> 30	> 30	> 30	> 30	> 30	> 30	CC1=C(C)C(=O)C(C(CCCCCC(=O)O)c2ccccc2)=C(C)C1=O (stereo unspecified) [SERATRODAST]

Second part, the molecule before the results:

SMILES	AC50 [1] [µM]	AC50 (Adenosine receptor A1) [µM]	AC50 (Progesterone receptor) [µM]	AC50 [2] [µM]	AC50 (Adenosine receptor A3) [µM]	AC50 (Mu-type opioid receptor) [µM]	AC50 (Histamine H3 receptor) [µM]	AC50 [3] [µM]
C=C1/C(=C\C=C2/CCC[C@]3(C)[C@@H]([C@H](C)/C=C/[C@@H](O)C4CC4)CC[C@@H]23)C[C@@H](O)C[C@@H]1O [CALCIPOTRIENE]	> 30	> 30	> 30	> 30	12	> 30	> 30	> 30
C=C[C@@]1(C)CC(=O)[C@]2(O)[C@@]3(C)[C@@H](O)CCC(C)(C)[C@@H]3[C@H](O)[C@H](OC(C)=O)[C@@]2(C)O1 [COLFORSIN]	> 30	> 30	> 30	> 30	> 30	> 30	> 30	> 30
CCCCCCCCCCCCCCCCCCCCCC(=O)Nc1ccn([C@@H]2O[C@H](CO)[C@@H](O)[C@@H]2O)c(=O)n1 [ENOCITABINE]	> 30	> 30	> 30	> 30	> 30	> 30	> 30	> 30
CCCCCC(=O)O[C@]1(C(C)=O)CC[C@H]2[C@@H]3CCC4=CC(=O)CC[C@]4(C)[C@H]3CC[C@@]21C [HYDROXYPROGESTERONE CAPROATE]	> 30	> 30	0.003	> 30	18.4	> 30	> 30	> 30
CCOC(=O)O[C@]1(C(=O)OCCl)CC[C@H]2[C@@H]3CCC4=CC(=O)C=C[C@]4(C)[C@H]3[C@@H](O)C[C@@]21C [LOTEPREDNOL ETABONATE]	> 30	> 30	0.024	> 30	> 30	> 30	> 30	> 30
COc1ccc(-c2noc(CC(=O)O)c2-c2ccc(OC)cc2)cc1 [MOFEZOLAC]	> 30	> 30	> 30	> 30	> 30	> 30	> 30	> 30
COc1ccc2nc3cc(Cl)ccc3c(Nc3cc(CN4CCCC4)c(O)c(CN4CCCC4)c3)c2n1 [PYRONARIDINE]	> 30	> 30	14	> 30	15	> 30	> 30	> 30
CCC(COC(=O)c1cc(OC)c(OC)c(OC)c1)(c1ccccc1)N(C)C (stereo unspecified) [TRIMEBUTINE]	21	> 30	> 30	> 30	30	0.2	> 30	17

Reference: ChEMBL document CHEMBL5291721, “A preclinical secondary pharmacology resource illuminates target-adverse drug reaction associations of marketed drugs” (Nat Commun, 2023)
